Measurements reported in the supplement of paper PMC10949913.

What was measured:
CU-ACC1 = test: area under concentration-response curve (viability) (AUC (a.u.)); higher = less active; details: 48 h
Summary of the method: (§1)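 For each of three adrenocortical carcinoma cell lines, 500–1,000 cells/well were placed in 5 µL medium in 1,536-well plates. A 23 nL volume of every library compound was added at 11 concentrations. Following 48 h, a 15-minute room-temperature CellTiter-Glo step preceded luminescence reading, with signals normalised per plate to vehicle and empty-well controls. AC50 and area under the curve were derived by curve fitting, retaining only inhibitory or non-responding curve classes.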

NCI-H295R = test: as above; details: 48 h
Summary of the method: as §1

| SMILES | area under concentration-response curve (CU-ACC1) | area under concentration-response curve (NCI-H295R) |
| --- | --- | --- |
| COC1=C(OC)C(=O)C(C/C=C(\C)CC/C=C(\C)CC/C=C(\C)CC/C=C(/C)CC/C=C(\C)CC/C=C(\C)CC/C=C(\C)CC/C=C(\C)CC/C=C(\C)CCC=C(C)C)=C(C)C1=O | 502 | 559 |
| CN1C(=O)[C@@H](NC(=O)c2nc(Cc3ccccc3)n[nH]2)COc2ccccc21 | 536 | 559 |
| OC(=O)/C1=C/CCN(CCOC(C2=CC=C(C=C2)C(F)(F)F)C3=CC=C(C=C3)C(F)(F)F)C1 | 548 | 569 |
| COC(=O)C[C@](O)(CCCC(C)(C)O)C(=O)O[C@@H]1C(OC)=CC23CCCN2CCc2cc4c(cc2[C@H]13)OCO4 (some centres undefined) | 149 | 252 |
| O=C(O)CCc1ccc(NCc2cccc(Oc3ccccc3)c2)cc1 | 546 | 599 |
| C/N=c1\ncc2cc(-c3cc(N/C(O)=N/CCC(C)(C)C)c(F)cc3C)c(C)nc2[nH]1 | 454 | 474 |
| Cc1nc(N)sc1-c1ccnc(Nc2ccc(N3CCOCC3)cc2)n1 | 400 | 414 |
| Cc1ccc(-c2ccc3c(ccc4sc5c(c43)NC[C@@H](C)NC5=O)n2)cn1 | 473 | 504 |
| Cc1ccccc1C(=O)Nc1ccc(C(=O)N2CCCC(O)c3cc(Cl)ccc32)c(C)c1 (centres undefined) | 484 | 536 |
| Cc1ncc(OC[C@@]2(c3cccc(F)c3)C[C@H]2C(=O)Nc2ccc(F)cn2)c(C)n1 | 457 | 516 |
| COc1cc(C(=O)O)ccc1NC(=O)[C@@H]1N[C@@H](CC(C)(C)C)[C@](C#N)(c2ccc(Cl)cc2F)[C@H]1c1cccc(Cl)c1F | 469 | 540 |
| CC(=O)N[C@H]1CSSC[C@@H](C(N)=O)NC(=O)[C@H](C(C)C)NC(=O)[C@H](C)NC(=O)[C@H](Cc2cnc[nH]2)NC1=O | 501 | 551 |
| NC(=O)c1nc(F)cnc1O | 506 | 553 |
| O=C(O)CC/C=C\CC[C@@H]1[C@@H](N2CCCCC2)[C@@H](O)C[C@@H]1OCc1ccc(-c2ccccc2)cc1 | 389 | 424 |
| CC(C)Nc1cc(C(F)(F)F)cc2nc(NC(=O)c3cccnc3)nn12 | 373 | 412 |
| Cn1cc(-c2ccc3c(c2)CCN3C(=O)Cc2cccc(C(F)(F)F)c2)c2c(N)ncnc21 | 523 | 577 |
| CONC(=O)Nc1ccc(-c2sc3c(c2CN(C)C)c(=O)n(-c2ccc(OC)nn2)c(=O)n3Cc2c(F)cccc2F)cc1 | 354 | 458 |
| CCNC(=O)Nc1ncc(-c2cc(-c3c(C)cc(OC)cc3C)nc(-c3cnccn3)n2)s1 | 482 | 520 |
| CCC(C)N(C)C(=O)c1cc2ccccc2c(-c2ccccc2Cl)n1 (centres undefined) | 492 | 337 |

| SMILES | area under concentration-response curve (CU-ACC1) | area under concentration-response curve (NCI-H295R) |
| --- | --- | --- |
| O=C(O)c1cc(/N=N/c2ccc(S(=O)(=O)Nc3ccccn3)cc2)ccc1O | 505 | 522 |
| O=C(Nc1ccc(F)c(C(F)(F)F)c1)Nc1nnc(-c2ccncc2)s1 | 444 | 464 |
| CCN1\C=C(C(O)=O)/C(=O)C2=C1C=C(N3CCN(C)CC3)C(=C2)F | 511 | 555 |
| Cc1c(F)ccc(C(=O)Nc2cc([N+](=O)[O-])ccc2N2CCN(C)CC2)c1Cl | 457 | 434 |
| CNC(=O)c1cc(Oc2ccc(NC(=O)Nc3cc(C(C)(C)C)nn3-c3ccc4ncccc4c3)c(F)c2)ccn1 | 496 | 561 |
| C[C@H](NC(=O)Cc1cc(F)cc(F)c1)C(=O)N[C@@H]1C(=O)N(C)c2ccccc2-c2ccccc21 | 516 | 528 |
| O=C\1N(N\C=C1[N]2C=CN=N2)C3=NC=NC(=C3)N4CCOCC4 | 492 | 521 |
| C[N]1N=CC=C1C/2=C(\C)N(C(=O)C(=C2)/C(=O)NCC3=NC=C(C=C3)[S+](C)([O-])=O)C4=CC=CC(=C4)C(F)(F)F | 380 | 277 |
| CC[C@@H]1[C@H](F)C(=O)N[C@@H]1COc1nccc2cc(C(N)=O)c(OC)cc12 | 472 | 532 |
| N[C@H](CSC(c1ccccc1)(c1ccccc1)c1ccccc1)C(=O)O | 529 | 564 |
| N[C@@H](Cc1c[nH]c2ccc(O)cc12)C(=O)O | 483 | 567 |
| CC1(C)O[C@@H]2C[C@H]3[C@@H]4CCC/5=C/C(=O)/C=C\[C@]5(C)[C@H]4[C@@H](O)C[C@]3(C)[C@@]2(O1)C(=O)CO | 469 | 524 |
| Cn1cnc([N+](=O)[O-])c1Sc1ncnc2nc[nH]c12 | 427 | 472 |
| CN(C)C1=C(Br)C=C(C=C1)C\2NC3=C(\C4=C2C(=O)CC(C)(C)C4)C5=CC=CC=C5C=C3 (centres undefined) | 506 | 515 |
| CONC(=O)Nc1ccc(-c2sc3c(c2CN(C)Cc2ccccc2)c(=O)n(-c2ccccc2)c(=O)n3Cc2c(F)cccc2F)cc1 | 531 | 556 |
| Cn1cnc2c1c(=O)[nH]c(=O)n2C | 544 | 575 |
| OCCN1CCN(CCCN2c3ccccc3Sc3ccc(C(F)(F)F)cc32)CC1 | 432 | 279 |
| c1ccc(-c2oc3ncnc(NC[C@@H]4CCCO4)c3c2-c2ccccc2)cc1 | 517 | 572 |
| O=C(Nc1cnccc1Cl)N1CCN(Cc2ccc3c(c2)OC(F)(F)O3)CC1 | 330 | 414 |

| SMILES | area under concentration-response curve (CU-ACC1) | area under concentration-response curve (NCI-H295R) |
| --- | --- | --- |
| O=C(/C=C/c1ccc(O)cc1)c1ccc(O)cc1O | 465 | 492 |
| CN1C(=O)N[C@H](Cc2c[nH]c3c(Cl)cccc23)C1=O | 425 | 445 |
| CCc1ccc(CCOc2ccc(CC3SC(=O)NC3=O)cc2)nc1 (centres undefined) | 112 | 110 |
| COc1ccc2nc3[nH]nc(C)c3c(NCCOCCO)c2c1 | 545 | 574 |
| Cc1ccc(Nc2cc(-c3cccc(N4C(=O)c5ccccc5C4=O)c3)ncn2)cc1N[S+](C)(=O)[O-] | 462 | 490 |
| C=C1C[C@@]2(O)O[C@@]3(C[C@H]2C(C)C)[C@@H](C)CC[C@@H]13 | 487 | 541 |
| COC(=O)[C@@H]1CC/2=C/C(=O)CC[C@]2(C)[C@@]34O[C@@H]3C[C@@]5(C)[C@@H](CC[C@@]56CCC(=O)O6)[C@H]14 | 355 | 528 |
| CCCCOCCOc1nc(-c2ccc(C(=O)O)c(F)c2)sc1C | 367 | 399 |
| CN1CCCN(CC1)C2=CC=C3C(=O)\C(=C/4SC5=C(C=CC=C5)N4C3=N2)C(=O)NCC6=CN=C(C)C=N6 | 528 | 554 |
| COC(=O)N1CC2(CC2)C[C@H](C(=O)NO)[C@H]1C(=O)N1CCN(c2ccccc2)CC1 | 412 | 470 |
| Cc1csc(-c2nnc(Nc3ccc(Oc4ncccc4-c4ccnc(N)n4)cc3)c3ccccc23)c1 | 504 | 470 |
| C[N]1N=CN=C1[C@@H]2[C@H](NC3=CC(=CC4=C3\C2=N/NC4=O)F)C5=CC=C(F)C=C5 | 405 | 415 |
| CCC[S+](=O)([O-])Nc1ccc(F)c(C(=O)c2c[nH]c3ncc(Cl)cc23)c1F | 475 | 493 |
| OC[C@H]1O[C@H](C[C@@H]1O)[N]2C=NC3=C2\N=C/NC[C@H]3O | 485 | 509 |
| COc1ccc(C2(C#N)CCC(C(=O)O)CC2)cc1OC1CCCC1 (centres undefined) | 548 | 606 |
| CCCN1CCN(c2ccc(C(=O)NC3(C(=O)NCC#N)CCCCC3)cc2)CC1 | 375 | 299 |
| O=C/1NC(=O)C(=C1C2=CN=C3C=CC=C[N]23)/C4=C[N]5CCN(CC6=C5C4=CC=C6)C(=O)N7CCOCC7 | 514 | 526 |
| CN(C[C@@H]1COCCO1)[S+]([O-])(=O)NC2=CC3=C(C=C2)\C=C/C4=C(C=C(C=N4)C5=C[N](C)N=C5)C3=O | 547 | 578 |
| C/C(O)=C(\C#N)C(=O)Nc1cc(Br)ccc1Br | 446 | 456 |
